Publication PMC7999366, “Alkyl-Resorcinol Derivatives as Inhibitors of GDP-Mannose Pyrophosphorylase with Antileishmanial Activities” (Molecules, 2021)
Read-outs that look alike come from different tables or passages of the source.

Key:
[1] = system: L. infantum intramacrophage amastigotes; assay: In vitro antileishmanial evaluation on intramacrophage amastigotes (Giemsa counting in RAW 264.7); assay type: cell-based, Leishmania infantum; settings: for Selectivity Index: CC50/IC50 on intramacrophage amastigotes; for IC50: Leishmania infantum, RAW264.7, RAW 264.7 macrophages, 48 h treatment, read-out: L. infantum Intramacrophage Amastigotes IC50 (µM) ± SD
Method: Concerning the evaluation on intramacrophage amastigotes, the determination of the cytotoxicity as presented above was necessary to use the highest drug concentrations to be studied on the intramacrophage amastigote model. RAW 264.7 macrophages were plated in 16-well Lab-Tek chamber slides (Thermo-FisherVillebon-sur-Yvette, France) at a density of 2 × 10^4 cells per well and incubated for 24 h at 37 °C with 5% CO2. […] After 24 h of infection at 37 °C with 5% CO2, extracellular parasites were removed, and DMEM complete medium (100 µL) containing two-fold serial dilutions of the compounds, from 100 µM to 0.049 µM, was added to each well. A positive control treated with 1% DMSO was added to each Lab-tek chamber-slide. After 48 h of treatment, the medium was removed and cells were fixed in methanol for 1 min, stained in 10% Giemsa (Merck) for 5 min, and further rinsed in water before observation in phase contrast at the microscope (Olympus CX31; Olympus, Rungis, France). The number of amastigotes was counted by two independent experimenters for a total of 300 macrophages per well and the ratio of amastigotes per macrophage was determined for each condition. This ratio was further compared with the one of the positive control, considered as 100%, to determine a percentage of inhibition (% I), as follows: % I = 100 − ((ratio of amastigotes per macrophage in treated cells/ratio of amastigotes per macrophages in untreated cells) × 100). The activity of the compounds was expressed as IC50, which was determined by nonlinear regression using GraphPad Prism 7.0. […] In vitro antileishmanial evaluations were performed in triplicate in three independent experiments.

[2] = In vitro cytotoxicity on RAW 264.7 macrophages (resazurin); assay type: cell-based; settings: mouse, 48 h incubation, read-out: Cytotoxicity on RAW 264.7 CC50 (µM) ± SD
Method: The RAW 264.7 macrophages (ATCC) were cultured at 37 °C with 5% CO2 in DMEM complete medium containing Dulbecco′s Modified Eagle′s Medium (DMEM, Invitrogen, Thermo-Fisher, Villebon-sur-Yvette, France) supplemented with penicillin-streptomycin (100 U/mL; Invitrogen), and heat-inactivated fetal bovine serum (10%; HIFBS).
Cytotoxicity was evaluated on RAW 264.7 macrophages. Cells were plated in 96-well microplates at a density of 2 × 10^4 cells per well. After an incubation of 24 h at 37 °C with 5% CO2, the medium was removed in each well, and 100 µL of DMEM complete medium containing two-fold serial dilutions of the compounds, from 100 µM to 0.049 µM, was added to each well. After 48 h of incubation at 37 °C with 5% CO2, 10 µL of resazurin (450 µM) was added to each well, and further incubated in the dark for 4 h at 37 °C with 5% CO2. In living cells, resazurin is reduced in resorufin, and this conversion is monitored by measuring OD570nm (resorufin) and OD600nm (resazurin; multimode microplate reader Spark®, Tecan, Lyon, France). […] In vitro cytotoxicity assays were performed in triplicate in three independent experiments.

hGDP-MP = target: T1, hGDP-MP (Homo sapiens, UniProt Q9Y5P6); assay: Enzyme inhibition assay on purified recombinant hGDP-MP (malachite green); assay type: biochemical; settings: 37 °C, 20 min, read-out: hGDP-MP IC50 (µM) ± SD
T1 construct: His; made in house; host or cells: E. coli
T1 sequence (Q9Y5P6 whole entry): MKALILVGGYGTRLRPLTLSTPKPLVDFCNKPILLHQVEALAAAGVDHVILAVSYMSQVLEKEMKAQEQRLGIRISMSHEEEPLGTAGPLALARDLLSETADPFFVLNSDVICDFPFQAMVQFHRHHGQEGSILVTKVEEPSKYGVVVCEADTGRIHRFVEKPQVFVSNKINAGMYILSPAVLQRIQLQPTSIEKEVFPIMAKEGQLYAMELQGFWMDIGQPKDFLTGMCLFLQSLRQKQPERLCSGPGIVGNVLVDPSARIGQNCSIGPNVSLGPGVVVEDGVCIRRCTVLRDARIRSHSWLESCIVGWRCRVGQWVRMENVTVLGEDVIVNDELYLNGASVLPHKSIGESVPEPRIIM
Excerpt: (§1) Recombinant His6 tagged GDP-MP from L. infantum (LiGDP-MP) was produced in E. coli and purified using Ni-nitrilotriacetic acid (Ni-NTA) and size exclusion chromatography Hiload^TM16/60 Superdex^TM 200 column as previously described for LdGDP-MP [12]. Recombinant His-tagged GDP-MP from human (hGDP-MP) was produced in E. coli and purified using a Mono-Q anion exchange column followed by a Hiload^TM 16/60 Superdex^TM 200 column as previously described.
(§2) Enzyme activities of both LiGDP-MP and hGDP-MP were measured at 37 °C for 20 min in 384 well plates in a 20-µL reaction containing 50 mM Tris-HCl pH 7.5, 5 mM MgCl2, 100 µM Mannose-1-phosphate, 100 µM GTP, 1 mM DTT, 0.1 U/mL inorganic pyrophosphatase (Sigma-Aldrich, Saint-Quentin-Fallavier, France) and 2 ng/µL of recombinant GDP-MP [12, 29]. The reaction was initiated by the addition of GDP-MP, and was stopped after adding 20 µL of revelation buffer containing malachite green (0.03% w/v), ammonium molybdate (0.2% w/v) and Triton X-100 (0.05% v/v) in HCl (0.7 M) for 5 min at 37 °C. The quantity of inorganic phosphate generated, representing GDP-MP activity, was determined by measuring OD650nm with a spectrometer plate reader Polar Omega (BMG LabTech, Champigny-sur-Marne, France).
(§3) To evaluate compounds on purified GDP-MPs, enzyme activities were measured as described above in the presence of 100 µg/mL of natural products originating from a chemical library from ICSN (Institut de Chimie des Substances Naturelles, Gif-sur-Yvette). The inhibitors were added in the reaction mix, before the addition of GDP-MP. The percentage of inhibition was then calculated in reference to untreated enzyme. The statistical parameter (Z-factor) was calculated to validate the quality of the HTS assays as described previously. As a control, compounds were evaluated in parallel in the same conditions on inorganic pyrophosphatase alone in order to discard false-positives. […] The IC50 were determined by nonlinear regression using GraphPad Prism 7.0 and further converted in µM in order to normalize units in Table 1. Enzyme inhibition assays were performed in triplicate in three independent experiments.

LiGDP-MP = LiGDP-MP (Leishmania infantum, UniProt A4I048); assay: Enzyme inhibition assay on purified recombinant LiGDP-MP (malachite green); assay type: biochemical
Sequence of LiGDP-MP (A4I048 entry or part of it): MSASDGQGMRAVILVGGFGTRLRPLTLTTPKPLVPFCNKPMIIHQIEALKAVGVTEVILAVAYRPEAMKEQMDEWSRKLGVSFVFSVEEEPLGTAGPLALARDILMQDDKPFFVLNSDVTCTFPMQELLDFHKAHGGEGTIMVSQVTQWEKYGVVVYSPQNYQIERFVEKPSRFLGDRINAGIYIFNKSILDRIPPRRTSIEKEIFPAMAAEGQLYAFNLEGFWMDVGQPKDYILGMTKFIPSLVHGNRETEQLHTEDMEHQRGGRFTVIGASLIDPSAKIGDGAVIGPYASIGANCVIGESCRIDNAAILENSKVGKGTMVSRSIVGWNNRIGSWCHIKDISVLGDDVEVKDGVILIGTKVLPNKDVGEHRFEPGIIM
Excerpt: as §1, §2, §3

[3] = system: L. infantum axenic amastigotes; assay: In vitro antileishmanial evaluation on axenic amastigotes (resazurin); assay type: cell-based, Leishmania infantum; settings: 72 h incubation, read-out: L. infantum Axenic Amastigotes IC50 (µM) ± SD
Method: Promastigotes of Leishmania infantum (MHOM/FR/2008/LEM5700) were cultured in the dark at 26 °C with 5% CO2 in M199 complete medium containing M199 medium supplemented with adenosine (100 µM), hemin (0.5 mg/L), Hepes (40 mM) pH 7.4, and heat inactivated foetal bovine serum (10%; HIFBS). Cultures of axenic amastigotes of L. infantum were adapted from. Briefly, axenic amastigotes of L. infantum were obtained from late log promastigotes diluted at 1 × 10^6/mL in M199 complete medium acidified at pH 5.5 and cultured at 37 °C with 5% CO2.
The evaluations of activity on axenic amastigotes were adapted from the protocols previously described. Briefly, two-fold serial dilutions of the compounds, from 100 µM to 0.049 µM, were performed in 100 µL of complete medium (see above) in 96-well microplates. Axenic amastigotes were then added to each well at a density of 10^6/mL in a 200 µL final volume. After 72 h of incubation at 37 °C with 5% CO2, 20 µL of resazurin (450 µM) was added to each well and further incubated in the dark for 24 h at 37 °C with 5% CO2. Cell viability was then monitored as described above. The activity of the compounds was expressed as IC50, which was determined by nonlinear regression using GraphPad Prism 7.0.

[4] = purified recombinant enzyme, 37 °C, 20 min, read-out: LiGDP-MP IC50 (µM) ± SD

SMILES | Selectivity Index [1] | IC50 [1] [µM] | CC50 at 48 h [2] [µM] | IC50 (hGDP-MP) [µM] | IC50 (LiGDP-MP; [4]) [µM] | IC50 [3] [µM] | IC50 ([3]; Leishmania infantum, 72 h) [µM] | IC50 (LiGDP-MP) [µM] | activity on leishmanial GDP-MP (in words) (LiGDP-MP; purified enzyme)
COc1cc(O)cc(CCCCCCCCC/C=C\CCCCCCCc2cc(O)cc(O)c2)c1 [compound 3, (10′Z)-1-hydroxy-3-methoxy-5-[18′-(3′′,5′′-dihydroxy-phenyl)-10′-octodecen-1′-yl]benzene] | <1.2 | > 25 | 31.8 ± 1.6 | 1.9 ± 0.4 | 2.3 | 49.5 ± 4.2 | > 25 | – | –
CCCC/C=C\CCCCCCCc1cccc(O)c1C(=O)O [compound 6, (Z)-2-hydroxy-6-(tridec-8-en-1-yl)benzoic acid] | >2.3 | 42.7 ± 1.3 | > 100 | 122 ± 26.1 | 100 ± 16.6 | – | > 100 | – | –
COc1cc(O)cc(CCCCCCC/C=C\CCCCCCCc2cc(O)cc(O)c2)c1 [compound 1, (8′Z)-1-hydroxy-3-methoxy-5-[16′-(3′′,5′′-dihydroxy-phenyl)-8′-hexadecen-1′-yl]benzene] | <0.7 | > 50 | 34.4 ± 1.5 | 1.3 ± 0.2 | – | 78.9 ± 3.1 | > 50 | – | –
COc1cc(O)cc(CCCCCCCCCCCCCCCCc2cc(O)cc(O)c2)c1 [compound 2, 1-hydroxy-3-methoxy-5-[16′-(3′′,5′′-dihydroxyphenyl)-hexadecanyl]benzene] | – | – | – | 13.7 ± 14.2 | 5.9 ± 3.5 | – | – | – | –
CCCC/C=C\CCCCCc1cccc(O)c1C(=O)O [compound 4, Khookerianic acid B] | <0.8 | > 100 | 83.1 ± 7 | 79.9 ± 5.9 | 120 ± 27.5 | – | > 100 | – | –
CCCCCCCCCCCc1cccc(O)c1C(=O)O [compound 5, anagigantic acid] | – | > 100 | > 100 | 38.3 ± 4.1 | 50.6 ± 4.8 | – | > 100 | – | –
CCCCCCCCCCCCCc1cccc(O)c1C(=O)O [compound 7, 2-hydroxy-6-tridecylbenzoic acid] | – | > 100 | > 100 | 29 ± 2.5 | 16.9 ± 5 | – | > 100 | – | –
CCCCCCCCCCCCCCCCOP(=O)([O-])OCC[N+](C)(C)C [Miltefosine, hexadecylphosphocholine, reference compound] | – | 6.7 ± 1.7 | – | – | – | – | 1 ± 0.3 | > 250 | did not show any activity
